According to patent EP4678638A1, “NEW E3 UBIQUITIN LIGASE LIGAND, PROTEIN DEGRADATION AGENT AND USE THEREOF” (priority 2023, dated 2024):
Where two headings read alike, the source gives them in different places.

Legend:
Assay type in all cases: cell-based
MCF7 = test: CCK-8 proliferation, MCF7 (MCF-7); conditions: Homo sapiens, MCF7; CCK-8; read-out: Inhibitory activity (IC50) on tumor cell proliferation, MCF-7
How it was run: (§1)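 Cells seeded, then after 24 h treated with 10 concentrations (top 10 µM, 5-fold serial dilution) for a line-specific time at 37°C, 5% CO2. Viability read by CCK-8; IC50 fitted from growth-inhibition curves.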

MM.1S = test: CCK-8 proliferation, MM.1S; conditions: Homo sapiens, MM1.S, read-out: Inhibitory activity (IC50) on tumor cell proliferation, MM1S
How it was run: as §1

WEE1 = target: T1, WEE1 (Homo sapiens, UniProt P30291+Q96SW2); test: Western blot degradation of WEE1 (hPBMC); conditions: Table D16
T1 construct: evaluate the effects of the compounds of the present disclosure on the expression of target proteins in cells; endogenous in cells; host or cells: hPBMC
T1 sequence (P30291 whole entry): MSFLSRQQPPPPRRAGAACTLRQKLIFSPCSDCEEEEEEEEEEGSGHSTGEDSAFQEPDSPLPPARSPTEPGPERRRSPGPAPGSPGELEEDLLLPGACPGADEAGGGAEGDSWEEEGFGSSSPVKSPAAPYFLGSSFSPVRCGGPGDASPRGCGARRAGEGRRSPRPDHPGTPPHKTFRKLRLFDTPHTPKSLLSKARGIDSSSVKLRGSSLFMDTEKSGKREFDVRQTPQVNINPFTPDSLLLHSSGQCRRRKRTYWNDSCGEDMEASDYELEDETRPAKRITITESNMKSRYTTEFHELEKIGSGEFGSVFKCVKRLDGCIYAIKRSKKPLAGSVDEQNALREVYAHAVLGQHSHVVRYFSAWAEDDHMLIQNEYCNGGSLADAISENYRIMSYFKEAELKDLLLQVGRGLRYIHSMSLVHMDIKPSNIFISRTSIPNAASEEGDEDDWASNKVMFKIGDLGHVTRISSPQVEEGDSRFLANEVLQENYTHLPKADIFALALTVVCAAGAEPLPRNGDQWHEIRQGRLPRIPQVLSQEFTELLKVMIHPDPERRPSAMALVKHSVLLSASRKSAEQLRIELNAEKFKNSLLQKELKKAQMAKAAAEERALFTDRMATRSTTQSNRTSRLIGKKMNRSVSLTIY
T1 sequence (Q96SW2 whole entry): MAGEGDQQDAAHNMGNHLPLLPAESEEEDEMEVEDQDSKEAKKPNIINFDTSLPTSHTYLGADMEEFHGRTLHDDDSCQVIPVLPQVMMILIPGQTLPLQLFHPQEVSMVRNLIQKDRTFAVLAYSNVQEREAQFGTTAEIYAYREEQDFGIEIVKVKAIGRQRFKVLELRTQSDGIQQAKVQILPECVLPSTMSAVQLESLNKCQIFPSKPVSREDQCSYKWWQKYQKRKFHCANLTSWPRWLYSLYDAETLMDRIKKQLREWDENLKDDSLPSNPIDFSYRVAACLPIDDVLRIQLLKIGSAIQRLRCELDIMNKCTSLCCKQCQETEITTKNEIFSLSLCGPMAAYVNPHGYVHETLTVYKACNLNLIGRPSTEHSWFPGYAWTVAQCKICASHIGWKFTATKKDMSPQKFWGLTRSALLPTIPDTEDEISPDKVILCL
T1 sequence (Q16531 whole entry partner): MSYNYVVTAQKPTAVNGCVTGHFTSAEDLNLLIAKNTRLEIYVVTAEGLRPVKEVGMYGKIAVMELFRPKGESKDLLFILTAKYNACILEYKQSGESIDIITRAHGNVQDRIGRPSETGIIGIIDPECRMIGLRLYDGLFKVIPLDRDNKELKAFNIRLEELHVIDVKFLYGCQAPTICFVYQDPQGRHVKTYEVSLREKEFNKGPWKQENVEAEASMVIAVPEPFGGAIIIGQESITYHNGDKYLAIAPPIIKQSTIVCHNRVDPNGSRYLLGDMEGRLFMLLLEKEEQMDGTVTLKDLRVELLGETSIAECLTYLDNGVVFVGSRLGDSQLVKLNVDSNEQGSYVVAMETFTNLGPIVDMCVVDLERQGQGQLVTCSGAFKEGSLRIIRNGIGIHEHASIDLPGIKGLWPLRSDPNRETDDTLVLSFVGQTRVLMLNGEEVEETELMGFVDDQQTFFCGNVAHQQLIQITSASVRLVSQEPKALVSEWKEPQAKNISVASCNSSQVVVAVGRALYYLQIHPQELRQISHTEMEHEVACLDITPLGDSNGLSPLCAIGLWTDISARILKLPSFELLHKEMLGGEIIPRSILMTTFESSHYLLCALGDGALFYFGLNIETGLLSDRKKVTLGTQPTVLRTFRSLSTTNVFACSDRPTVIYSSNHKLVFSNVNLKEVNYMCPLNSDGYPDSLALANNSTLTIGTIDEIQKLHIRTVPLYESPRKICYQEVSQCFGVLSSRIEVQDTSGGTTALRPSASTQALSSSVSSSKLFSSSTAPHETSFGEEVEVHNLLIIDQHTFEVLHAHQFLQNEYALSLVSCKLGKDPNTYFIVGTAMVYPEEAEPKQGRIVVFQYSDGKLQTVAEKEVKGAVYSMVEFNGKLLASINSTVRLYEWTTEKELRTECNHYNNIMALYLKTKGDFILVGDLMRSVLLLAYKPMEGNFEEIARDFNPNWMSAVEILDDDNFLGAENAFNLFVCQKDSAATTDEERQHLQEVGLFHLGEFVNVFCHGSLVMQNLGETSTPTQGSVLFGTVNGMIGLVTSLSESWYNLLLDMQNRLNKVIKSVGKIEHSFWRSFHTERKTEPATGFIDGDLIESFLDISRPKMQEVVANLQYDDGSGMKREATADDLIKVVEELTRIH
How it was run: (§2)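 Quantification by ImageJ densitometry of Western blot bands: DC50 is the fitted concentration halving band intensity relative to DMSO. Percent remaining uses internal-control normalization, and degradation rate is its complement.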

IKZF1 = target: T2, IKZF1 (Homo sapiens, UniProt Q13422+Q96SW2); test: Western blot degradation of IKZF1 (hPBMC); conditions: Table D16
T2 construct: evaluate the effects of the compounds of the present disclosure on the expression of target proteins in cells; endogenous in cells; host or cells: hPBMC
How it was run: as §2

IKZF2 = target: T3, IKZF2 (Homo sapiens, UniProt Q96SW2+Q9UKS7); test: Western blot degradation of IKZF2 (hPBMC); conditions: Table D16
T3 construct: evaluate the effects of the compounds of the present disclosure on the expression of target proteins in cells; endogenous in cells; host or cells: hPBMC
T3 sequence (Q9UKS7 whole entry): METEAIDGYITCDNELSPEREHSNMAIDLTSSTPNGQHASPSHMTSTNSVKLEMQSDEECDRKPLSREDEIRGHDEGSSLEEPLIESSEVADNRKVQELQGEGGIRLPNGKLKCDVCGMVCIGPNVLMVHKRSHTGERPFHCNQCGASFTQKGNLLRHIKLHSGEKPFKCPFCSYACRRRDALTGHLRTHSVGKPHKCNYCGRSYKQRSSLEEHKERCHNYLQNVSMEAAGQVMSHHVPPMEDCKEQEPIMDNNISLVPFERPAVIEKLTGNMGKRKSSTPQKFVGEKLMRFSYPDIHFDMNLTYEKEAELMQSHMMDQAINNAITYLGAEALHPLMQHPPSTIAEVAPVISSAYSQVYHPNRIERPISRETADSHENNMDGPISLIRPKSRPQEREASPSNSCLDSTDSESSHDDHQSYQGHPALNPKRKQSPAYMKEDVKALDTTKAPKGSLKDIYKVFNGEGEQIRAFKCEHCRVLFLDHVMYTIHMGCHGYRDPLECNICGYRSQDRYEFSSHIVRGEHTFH
T3 sequence (Q96SW2 whole entry): as the sequence (Q96SW2 whole entry) above
T3 sequence (Q16531 whole entry partner): as the sequence (Q16531 whole entry partner) above
How it was run: as §2

IKZF3 = target: T4, IKZF3 (Homo sapiens, UniProt Q96SW2+Q9UKT9); test: Western blot degradation of IKZF3 (hPBMC); conditions: Table D16
T4 construct: evaluate the effects of the compounds of the present disclosure on the expression of target proteins in cells; endogenous in cells; host or cells: hPBMC
T4 sequence (Q9UKT9 whole entry): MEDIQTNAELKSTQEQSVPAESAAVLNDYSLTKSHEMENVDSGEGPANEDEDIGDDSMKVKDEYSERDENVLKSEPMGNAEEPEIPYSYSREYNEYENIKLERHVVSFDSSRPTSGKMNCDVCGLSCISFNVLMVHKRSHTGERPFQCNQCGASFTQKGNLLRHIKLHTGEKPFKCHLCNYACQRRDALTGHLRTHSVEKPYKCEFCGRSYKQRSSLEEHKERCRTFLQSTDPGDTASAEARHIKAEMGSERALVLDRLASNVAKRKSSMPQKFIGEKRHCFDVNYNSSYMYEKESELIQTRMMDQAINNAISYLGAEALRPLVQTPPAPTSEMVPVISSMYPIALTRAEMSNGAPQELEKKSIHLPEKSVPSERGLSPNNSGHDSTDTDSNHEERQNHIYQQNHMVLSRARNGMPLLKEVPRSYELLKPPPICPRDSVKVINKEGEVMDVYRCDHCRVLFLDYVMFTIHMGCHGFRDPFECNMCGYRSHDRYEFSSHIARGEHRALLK
T4 sequence (Q96SW2 whole entry): as the sequence (Q96SW2 whole entry) above
T4 sequence (Q16531 whole entry partner): as the sequence (Q16531 whole entry partner) above
How it was run: as §2

CK1a = target: T5, CK1a (Homo sapiens, UniProt P48729+Q96SW2); test: Western blot degradation of CK1a (hPBMC); conditions: Table D16
T5 construct: evaluate the effects of the compounds of the present disclosure on the expression of target proteins in cells; endogenous in cells; host or cells: hPBMC
T5 sequence (P48729 whole entry): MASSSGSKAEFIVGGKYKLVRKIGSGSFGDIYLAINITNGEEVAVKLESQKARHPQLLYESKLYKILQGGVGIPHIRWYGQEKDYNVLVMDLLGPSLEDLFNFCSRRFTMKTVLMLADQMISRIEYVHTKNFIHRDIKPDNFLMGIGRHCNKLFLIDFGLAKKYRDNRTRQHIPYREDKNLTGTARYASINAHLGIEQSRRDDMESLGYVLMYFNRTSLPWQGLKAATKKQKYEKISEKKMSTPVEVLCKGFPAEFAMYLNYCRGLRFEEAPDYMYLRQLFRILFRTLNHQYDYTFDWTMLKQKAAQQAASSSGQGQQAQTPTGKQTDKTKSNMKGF
T5 sequence (Q96SW2 whole entry): as the sequence (Q96SW2 whole entry) above
T5 sequence (Q16531 whole entry partner): as the sequence (Q16531 whole entry partner) above
How it was run: as §2

GSPT1 = target: T6, GSPT1 (Homo sapiens, UniProt P15170+Q96SW2); test: Western blot degradation of GSPT1 (hPBMC); conditions: Table D16
T6 construct: evaluate the effects of the compounds of the present disclosure on the expression of target proteins in cells; endogenous in cells; host or cells: hPBMC
T6 sequence (P15170 whole entry): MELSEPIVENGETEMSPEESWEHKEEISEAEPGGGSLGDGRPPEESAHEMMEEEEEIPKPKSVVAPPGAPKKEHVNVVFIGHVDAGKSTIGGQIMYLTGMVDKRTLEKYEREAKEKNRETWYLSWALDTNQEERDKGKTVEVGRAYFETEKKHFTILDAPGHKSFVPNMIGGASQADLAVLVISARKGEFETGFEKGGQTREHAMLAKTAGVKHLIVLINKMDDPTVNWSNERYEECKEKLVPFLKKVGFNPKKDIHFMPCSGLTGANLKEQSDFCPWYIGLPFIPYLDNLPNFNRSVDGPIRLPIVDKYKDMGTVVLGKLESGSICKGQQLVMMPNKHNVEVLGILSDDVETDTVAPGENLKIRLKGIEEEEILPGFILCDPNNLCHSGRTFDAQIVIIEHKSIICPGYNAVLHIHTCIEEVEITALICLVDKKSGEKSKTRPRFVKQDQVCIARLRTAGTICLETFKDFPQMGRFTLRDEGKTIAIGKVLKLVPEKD
T6 sequence (Q96SW2 whole entry): as the sequence (Q96SW2 whole entry) above
T6 sequence (Q16531 whole entry partner): as the sequence (Q16531 whole entry partner) above
How it was run: as §2

Row | IC50 (MCF7) [µM] | IC50 (MM.1S; CCK-8, 72 hours) [µM] | Structure (SMILES) | Degradation of substrate protein WEE1 (substrate protein remaining %) (WEE1) | Degradation of substrate protein IKZF1 (substrate protein remaining %) (IKZF1) | Degradation of substrate protein IKZF2 (substrate protein remaining %) (IKZF2) | Degradation of substrate protein IKZF3 (substrate protein remaining %) (IKZF3) | Degradation of substrate protein CKla (substrate protein remaining %) (CK1a) | Degradation of substrate protein GSPT1 (substrate protein remaining %) (GSPT1) | IC50 (MM.1S; 72 h) [µM]
1 | 1 to 5 | 1 to 5 | O=C1CCN(c2cncc(CCl)c2)C(=O)N1 [GT-07047, 1-(5-(Chloromethyl)pyridin-3-yl)dihydropyrimidine-2,4(1H,3H)-dione] | B (B is defined as substrate protein remaining % > 80%) | A (A is defined as 0% ≤ substrate protein remaining % ≤ 80%) | A (A is defined as 0% ≤ substrate protein remaining % ≤ 80%) | A (A is defined as 0% ≤ substrate protein remaining % ≤ 80%) | A (A is defined as 0% ≤ substrate protein remaining % ≤ 80%) | B (B is defined as substrate protein remaining % > 80%) | –
2 | – | 1 to 5 | NCc1cc(N2CCC(=O)NC2=O)ncc1F [GT-07369, 1-(4-(Aminomethyl)-5-fluoropyridin-2-yl)dihydropyrimidine-2,4(1H,3H)-dione] | B (B is defined as substrate protein remaining % > 80%) | B (B is defined as substrate protein remaining % > 80%) | B (B is defined as substrate protein remaining % > 80%) | B (B is defined as substrate protein remaining % > 80%) | A (A is defined as 0% ≤ substrate protein remaining % ≤ 80%) | A (A is defined as 0% ≤ substrate protein remaining % ≤ 80%) | –
3 | – | 1 to 5 | NCc1ccnc(N2CCC(=O)NC2=O)c1 [GT-07198, 1-(4-(Aminomethyl)pyridin-2-yl)dihydropyrimidine-2,4(1H,3H)-dione] | B (B is defined as substrate protein remaining % > 80%) | B (B is defined as substrate protein remaining % > 80%) | B (B is defined as substrate protein remaining % > 80%) | A (A is defined as 0% ≤ substrate protein remaining % ≤ 80%) | B (B is defined as substrate protein remaining % > 80%) | B (B is defined as substrate protein remaining % > 80%) | –
4 | – | – | CC(C)(C)[Si](C)(C)OCc1ccc(NC2CCC(=O)NC2=O)cn1 (centres unmarked) [GT-07445, 3-((6-(((tert-Butyldimethylsilyl)oxy)methyl)pyridin-3-yl)amino)piperidine-2,6-dione] | A (A is defined as 0% ≤ substrate protein remaining % ≤ 80%) | A (A is defined as 0% ≤ substrate protein remaining % ≤ 80%) | B (B is defined as substrate protein remaining % > 80%) | B (B is defined as substrate protein remaining % > 80%) | A (A is defined as 0% ≤ substrate protein remaining % ≤ 80%) | A (A is defined as 0% ≤ substrate protein remaining % ≤ 80%) | 0.5 to 1
5 | – | 1 to 5 | O=C1CCC(Nc2cncc(CO)c2)C(=O)N1 (centres unmarked) [GT-07448, 3-((5-(Hydroxymethyl)pyridin-3-yl)amino)piperidine-2,6-dione] | A (A is defined as 0% ≤ substrate protein remaining % ≤ 80%) | A (A is defined as 0% ≤ substrate protein remaining % ≤ 80%) | A (A is defined as 0% ≤ substrate protein remaining % ≤ 80%) | A (A is defined as 0% ≤ substrate protein remaining % ≤ 80%) | A (A is defined as 0% ≤ substrate protein remaining % ≤ 80%) | A (A is defined as 0% ≤ substrate protein remaining % ≤ 80%) | –
6 | – | 1 to 5 | O=Cc1ccnc(NC2CCC(=O)NC2=O)c1 (centres unmarked) [GT-07553, 2-((2,6-Dioxopiperidin-3-yl)amino)isonicotinaldehyde] | A (A is defined as 0% ≤ substrate protein remaining % ≤ 80%) | A (A is defined as 0% ≤ substrate protein remaining % ≤ 80%) | A (A is defined as 0% ≤ substrate protein remaining % ≤ 80%) | B (B is defined as substrate protein remaining % > 80%) | B (B is defined as substrate protein remaining % > 80%) | B (B is defined as substrate protein remaining % > 80%) | –
7 | – | 1 to 5 | O=C1CCN(c2cnc(CCl)c(F)c2)C(=O)N1 [GT-07557, 1-(6-(Chloromethyl)-5-fluoropyridin-3-yl)dihydropyrimidine-2,4(1H,3H)-dione] | A (A is defined as 0% ≤ substrate protein remaining % ≤ 80%) | A (A is defined as 0% ≤ substrate protein remaining % ≤ 80%) | B (B is defined as substrate protein remaining % > 80%) | B (B is defined as substrate protein remaining % > 80%) | A (A is defined as 0% ≤ substrate protein remaining % ≤ 80%) | B (B is defined as substrate protein remaining % > 80%) | –
8 | 1 to 5 | 1 to 5 | O=C1CCC(c2cc(CO)ccn2)C(=O)N1 (centres unmarked) [GT-07050, 3-(4-(Hydroxymethyl)pyridin-2-yl)piperidine-2,6-dione] | B (B is defined as substrate protein remaining % > 80%) | A (A is defined as 0% ≤ substrate protein remaining % ≤ 80%) | B (B is defined as substrate protein remaining % > 80%) | A (A is defined as 0% ≤ substrate protein remaining % ≤ 80%) | A (A is defined as 0% ≤ substrate protein remaining % ≤ 80%) | A (A is defined as 0% ≤ substrate protein remaining % ≤ 80%) | –
9 | – | 1 to 5 | O=C1CCC(c2ccc(CO)nn2)C(=O)N1 (centres unmarked) [GT-07636, 3-(6-(Hydroxymethyl)pyridazin-3-yl)piperidine-2,6-dione] | B (B is defined as substrate protein remaining % > 80%) | A (A is defined as 0% ≤ substrate protein remaining % ≤ 80%) | A (A is defined as 0% ≤ substrate protein remaining % ≤ 80%) | A (A is defined as 0% ≤ substrate protein remaining % ≤ 80%) | B (B is defined as substrate protein remaining % > 80%) | A (A is defined as 0% ≤ substrate protein remaining % ≤ 80%) | –
